Article PMC9645260, “Small-molecule inhibitors of P-Rex guanine-nucleotide exchange factors” (Small GTPases, 2022)
pIC50: −log10 of the molar value.

Legend:
P-Rex1 DH domain = target: T1, P-Rex1 DH domain (Homo sapiens, UniProt Q8TCU6); assay: Liposome-based GEF activity assay, isolated P-Rex1 DH domain; assay type: biochemical; details: 10 µM compound
T1 construct: 200 nM iDH EE-P-Rex1 DH domain (compounds 11–29); made in house; host or cells: Sf9 cells (baculovirus)
Method: Full-length N-terminally EE-tagged P-Rex1, P-Rex2, the P-Rex1 DH and DHPH domains and the P-Rex2 DH domain were produced in Sf9 cells using baculoviral transduction and were purified using anti-EE beads, as previously described. Briefly, frozen pellets from 500 ml of Sf9 culture infected with P-Rex expressing high-titre baculovirus were resuspended in ice-cold lysis Sf9-cell lysis buffer 2 (1x PBS, 1% Triton X-100, 5 mM EGTA, 1 mM EDTA, 25 mM NaF, 20 mM β-glycerophosphate, 1 mM DTT, 100 µM PMSF, 10 μg/ml each of leupeptin, pepstatin A, aprotinin and antipain) for 5 min and then ultracentrifuged at 118,000 × g for 1 h at 4°C. Supernatants were incubated with pre-washed anti-EE beads for 90 min on ice with end-over-end rotation. Beads were washed 4 times in wash buffer (2x PBS, 0.1% Triton X-100, 1 mM EGTA) and 5 times in elution buffer (1x PBS, 10% glycerol, 1 mM DTT, 1 mM EGTA, 0.01% Na azide), and protein was eluted by incubation with elution buffer containing Ac-EEYMPME peptide as described above. Protein was concentrated in a YM-100 Centricon (Millipore) at 5000 × g at 4°C. Fatty acid-free BSA and glycerol were added to final concentrations of 2 mg/ml and 50%, respectively. Protein concentration and purity were determined by coomassie staining of SDS-PAGE gels. Full-length Tiam1, expressed in and purified from Sf9 cells, was a kind gift from Angeliki Malliri, CRUK Manchester Institute, UK. […]
Liposome-based GEF activity assays were carried out essentially as described, except that GEFs were incubated with inhibitor compounds prior to the assay. […] Small GTPases were isolated using anti-EE antibody-coupled Sepharose beads or glutathione Sepharose beads, as appropriate, by incubation on ice for 90 min with end-over-end rotation, four washes in ice-cold wash buffer and resuspension of beads in Ultima Gold scintillation fluid (Perkin Elmer). ^35S-GTPγS incorporation was assessed by scintillation counting (Packard 1600TR, Liquid Scintillation Analyser).

P-Rex1 DHPH domains = target: T2, P-Rex1 DHPH domains (Homo sapiens, UniProt Q8TCU6); assay: Liposome-based GEF activity assay, isolated P-Rex1 DHPH domains; assay type: biochemical; details: for P-Rex1 Rac-GEF activity reduced to / remaining activity at 10 µM: 10 µM compound; for P-Rex1 Rac-GEF activity reduced to: P-Rex1 DHPH domains; for pIC50: liposome-based GEF assay, 200 nM prenylated EE-Rac2 as substrate, read-out: IC50 of inhibition of P-Rex1 DHPH Rac-GEF activity
T2 construct: 100 nM EE-P-Rex1 DHPH domains (PREX-in1, compounds 2–10 and 30–128); made in house; host or cells: Sf9 cells (baculovirus)
T2 sequence (Q8TCU6 49-392 limits assumed): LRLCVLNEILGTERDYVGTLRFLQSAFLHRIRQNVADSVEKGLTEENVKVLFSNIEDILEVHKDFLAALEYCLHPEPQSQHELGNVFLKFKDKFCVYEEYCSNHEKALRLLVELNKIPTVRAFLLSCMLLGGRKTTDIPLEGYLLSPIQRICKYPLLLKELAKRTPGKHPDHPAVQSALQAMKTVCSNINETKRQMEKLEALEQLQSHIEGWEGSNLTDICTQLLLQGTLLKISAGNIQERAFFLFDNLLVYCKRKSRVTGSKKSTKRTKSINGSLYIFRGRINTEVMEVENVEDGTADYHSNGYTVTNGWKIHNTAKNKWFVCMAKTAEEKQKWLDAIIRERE
Method: Full-length N-terminally EE-tagged P-Rex1, P-Rex2, the P-Rex1 DH and DHPH domains and the P-Rex2 DH domain were produced in Sf9 cells using baculoviral transduction and were purified using anti-EE beads, as previously described. Briefly, frozen pellets from 500 ml of Sf9 culture infected with P-Rex expressing high-titre baculovirus were resuspended in ice-cold lysis Sf9-cell lysis buffer 2 (1x PBS, 1% Triton X-100, 5 mM EGTA, 1 mM EDTA, 25 mM NaF, 20 mM β-glycerophosphate, 1 mM DTT, 100 µM PMSF, 10 μg/ml each of leupeptin, pepstatin A, aprotinin and antipain) for 5 min and then ultracentrifuged at 118,000 × g for 1 h at 4°C. Supernatants were incubated with pre-washed anti-EE beads for 90 min on ice with end-over-end rotation. Beads were washed 4 times in wash buffer (2x PBS, 0.1% Triton X-100, 1 mM EGTA) and 5 times in elution buffer (1x PBS, 10% glycerol, 1 mM DTT, 1 mM EGTA, 0.01% Na azide), and protein was eluted by incubation with elution buffer containing Ac-EEYMPME peptide as described above. Protein was concentrated in a YM-100 Centricon (Millipore) at 5000 × g at 4°C. Fatty acid-free BSA and glycerol were added to final concentrations of 2 mg/ml and 50%, respectively. Protein concentration and purity were determined by coomassie staining of SDS-PAGE gels. Full-length Tiam1, expressed in and purified from Sf9 cells, was a kind gift from Angeliki Malliri, CRUK Manchester Institute, UK. The ITSN1 DHPH domains and Ect2 DHPH domains, produced in and purified from bacteria, were a kind gift from Kent Rossman, University of North Carolina, Chapel Hill, USA. The DOCK10 DHR2 domain, produced in and purified from bacteria, was a kind gift from Danni Fan, Institute of Cancer Research, London, UK. All small GTPase and GEF proteins were stored in aliquots at −80°C and were snap-frozen in liquid N2 after each use.
Liposome-based GEF activity assays were carried out essentially as described, except that GEFs were incubated with inhibitor compounds prior to the assay. GEFs (full-length P-Rex1, P-Rex2, and Tiam1, P-Rex1 DH and DHPH domains, P-Rex2 DH domain, ITSN1 DHPH domains, ECT2 DHPH domains or DOCK10 DHR2 domain) were diluted in 20 mM HEPES (pH 7.0 at 4°C), 200 mM KCl, 10% ethylene glycerol, 1% betaine, 500 µM EGTA, 0.01% azide. […] The final 10 µl samples contained GTPase, GEF and inhibitor at concentrations as stated, in 20 mM HEPES pH 7.5, 100 mM NaCl, 1 mM MgCl2, 1 mM EGTA, 1 mM DTT, 10 mg/ml fatty acid-free BSA, liposomes consisting of phosphatidylcholine, -serine and -inositol (200 µM each), with or without 10 µM PIP3, 1 µM GTPγS and 80 nM (1 µCi) ^35S-GTPγS. Positive controls contained additionally 2 mM EDTA to induce maximal GTP-loading of the GTPase. Samples were incubated at 30°C for 10 min, and reactions were stopped by the addition of 400 µl ice-cold wash buffer (1x PBS, 1 mM EGTA, 10 mM MgCl2, 1% Triton X-100, 100 µM GTP). Small GTPases were isolated using anti-EE antibody-coupled Sepharose beads or glutathione Sepharose beads, as appropriate, by incubation on ice for 90 min with end-over-end rotation, four washes in ice-cold wash buffer and resuspension of beads in Ultima Gold scintillation fluid (Perkin Elmer). ^35S-GTPγS incorporation was assessed by scintillation counting (Packard 1600TR, Liquid Scintillation Analyser).

[1] = 100 nM EE-P-Rex1 DHPH domains, 200 nM prenylated EE-Rac1, PREX-in1, compounds 2-10 and 30-128

T1 sequence (Q8TCU6 49-240 limits assumed): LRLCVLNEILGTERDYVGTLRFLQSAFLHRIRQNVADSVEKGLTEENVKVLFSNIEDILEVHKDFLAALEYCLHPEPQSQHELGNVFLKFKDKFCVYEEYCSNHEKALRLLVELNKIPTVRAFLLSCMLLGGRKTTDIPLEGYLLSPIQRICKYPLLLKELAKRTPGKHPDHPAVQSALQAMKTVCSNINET

| SMILES | P-Rex1 Rac-GEF activity reduced to (P-Rex1 DH domain; P-Rex1 DH domain) | remaining activity at 10 µM (P-Rex1 DH domain; 200 nM EE-P-Rex1 DH domain, 200 nM prenylated EE-Rac1, compounds 11-29) [%] | P-Rex1 Rac-GEF activity reduced to (P-Rex1 DHPH domains) | remaining activity at 10 µM (P-Rex1 DHPH domains; [1]) [%] | pIC50 (P-Rex1 DHPH domains) | % P-Rex1 activity remaining (P-Rex1 DHPH domains; [1]) [%] |
| --- | --- | --- | --- | --- | --- | --- |
| CCc1[nH]nc2c1C(c1ccc(-c3ccc(Cl)cc3)o1)C(C#N)=C(N)O2 (stereo not shown) [#26] | below 10% | 4 | – | – | – | – |
| COc1ccc(-c2[nH]nc3c2C(c2ccc(-c4ccc(OC)c(Cl)c4)o2)C(C#N)=C(N)O3)cc1 (stereo not shown) [#61] | – | – | below 10% | 2 | 5.70 | – |
| COc1cc(NC(=O)c2ccc(-c3ccc(Cl)cc3)o2)cc(OC)c1 [#66] | – | – | – | – | – | 58 |
| N#CC1=C(N)Oc2n[nH]c(-c3ccc(C(F)(F)F)cc3)c2C1c1ccc(-c2ccc(Cl)cc2)o1 (stereo not shown) [#116] | – | – | below 10% | 9 | 5.57 | – |

Further lines, results first:

| P-Rex1 Rac-GEF activity reduced to (P-Rex1 DH domain; P-Rex1 DH domain) | remaining activity at 10 µM (P-Rex1 DH domain; 200 nM EE-P-Rex1 DH domain, 200 nM prenylated EE-Rac1, compounds 11-29) [%] | P-Rex1 Rac-GEF activity reduced to (P-Rex1 DHPH domains) | remaining activity at 10 µM (P-Rex1 DHPH domains; [1]) [%] | pIC50 (P-Rex1 DHPH domains) | % P-Rex1 activity remaining (P-Rex1 DHPH domains; [1]) [%] | SMILES |
| --- | --- | --- | --- | --- | --- | --- |
| – | – | below 10% | 1.69 | – | – | COc1ccc(-c2ccc(C3C(C#N)=C(N)Oc4n[nH]c(-c5ccc(C)cc5)c43)o2)cc1Cl (stereo not shown) [#72] |
| – | – | below 10% | -2.19 | – | – | COc1ccc(-c2ccc(C3C(C#N)=C(N)Oc4n[nH]c(-c5ccc(Cl)cc5)c43)o2)cc1Cl (stereo not shown) [#76] |
